The record followed here is patent US20240287138A1, “CYCLIC PEPTIDES FOR INHIBITING TNF RECEPTOR 1 ACTIVITY” (Merck Sharp & Dohme LLC, priority 2023, published 2024).

SMILES strings stand for the structures. Where two headings read alike, the source gives them in different places. Numbered stars: 1 amine (or outer) side, 2 acyl side, 3 side chain; on linkers, the order of the positions; unused ones are H or OH. Bridge positions count the residues as written; N and C are the ends. Square brackets hold non-standard residues; d marks the D form. Peptide text beside a SMILES is read from it. Trp(βS-Me,7-OMe) = COc1cccc2c([C@H](C)[C@H](N)C(=O)O)c[nH]c12; Trp(1-CH2COOH) = N[C@@H](Cc1cn(CC(=O)O)c2ccccc12)C(=O)O; Morpholine(3S-CO,6,6-Me2) = CC1(C)CN[C@H](C(=O)O)CO1; Trp(βS-Me) = C[C@@H](c1c[nH]c2ccccc12)[C@H](N)C(=O)O; Trp(7-CN) = N#Cc1cccc2c(C[C@H](N)C(=O)O)c[nH]c12; Trp(7-Cl) = N[C@@H](Cc1c[nH]c2c(Cl)cccc12)C(=O)O; Phe(3-CONH2) = NC(=O)c1cccc(C[C@H](N)C(=O)O)c1; Phe(4-CONH2) = NC(=O)c1ccc(C[C@H](N)C(=O)O)cc1; Phe(4-COOH) = N[C@@H](Cc1ccc(C(=O)O)cc1)C(=O)O; X9 = CN(C)[C@@H]1C[C@H](C(=O)[*:2])N([*:1])C1; Phe(4-CH2NH2) = NCc1ccc(C[C@H](N)C(=O)O)cc1; dPro(4S-NH2) = N[C@@H]1CN[C@@H](C(=O)O)C1; Pip(5R-OH) = O=C(O)[C@@H]1CC[C@@H](O)CN1; X1 = O=C([C@@H]1CC[C@H](N[*:1])C1)[*:2]; 2Nal = N[C@@H](Cc1ccc2ccccc2c1)C(=O)O; 4Pal = N[C@@H](Cc1ccncc1)C(=O)O; dHyp = O=C(O)[C@H]1C[C@H](O)CN1; Cit = NC(=O)NCCC[C@H](N)C(=O)O; Ahp(2) = CCCCC[C@H](N)C(=O)O; NEtAla = CCN[C@@H](C)C(=O)O; αMeS = C[C@](N)(CO)C(=O)O; Nle = CCCC[C@H](N)C(=O)O; Sar = CNCC(=O)O A value given as a limit tells only on which side of the number the result lay.

The target in assay [1] is T1, human soluble TNFR1 (sTNFR1) (Homo sapiens, UniProt P19438).
T1 construct: made in house; host or cells: Sf21 (baculovirus)
T1 sequence (P19438 with tags, fused parts or gaps): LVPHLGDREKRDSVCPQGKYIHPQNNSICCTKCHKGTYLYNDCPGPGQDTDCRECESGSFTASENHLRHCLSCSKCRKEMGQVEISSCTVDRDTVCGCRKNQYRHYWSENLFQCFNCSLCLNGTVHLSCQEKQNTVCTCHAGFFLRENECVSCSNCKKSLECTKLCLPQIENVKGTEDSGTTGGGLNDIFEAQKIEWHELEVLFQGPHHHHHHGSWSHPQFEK
As to the kind of experiment: Human sTNFR1-peptide displacement assay (LanthaScreen Eu TR-FRET binding assay). The note with it: for IC50: weaker binders, 10 pts titration, 4-parameter logistic model, read-out: TR-FRET, IC50. The gist of the method:
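Readout is the 665/615 nm TR-FRET ratio (Eu anti-His donor, streptavidin-Alexa647 acceptor), normalized to DMSO and saturating displacer, fit by Morrison-based five-parameter logistic for Kd^app. His-tagged sTNFR1 (1-211) prebound to 100 nM biotinylated peptide SEQ ID NO.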
(In general: Time-resolved FRET reads energy transfer from a long-lived donor to a nearby acceptor.)

Assay [2] has as its target T2, human TNFR1 extracellular domain (ECD) protein (Homo sapiens, UniProt P19438).
T2 construct: HRV 3C protease cleavage site (C); 6His (C, cleaved yes); made in house; host or cells: Sf21 insect cells (baculovirus), secreted
T2 sequence (P19438 30-211): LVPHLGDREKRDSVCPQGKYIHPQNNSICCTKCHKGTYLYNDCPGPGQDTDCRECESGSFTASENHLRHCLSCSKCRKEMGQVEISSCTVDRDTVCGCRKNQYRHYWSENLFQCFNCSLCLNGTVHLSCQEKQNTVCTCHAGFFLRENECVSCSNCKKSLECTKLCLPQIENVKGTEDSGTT
As to the kind of experiment: SPR binding affinity to captured human TNFR1 ECD. The gist of the method:
(§1)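 Biotinylated avi-tagged human TNFR1 or TNFR2 ECD, expressed in Sf21 insect cells, captured on streptavidin SPR chip; peptide analytes run in 10 mM HEPES pH 7.4, 150 mM NaCl, 3 mM EDTA, 0.05% P20, 2% DMSO. kon and koff measured, affinity KA calculated.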
A general note: SPR reads the build-up and loss of mass on a sensor chip optically.

Assay [3] concerns the target T3, human TNFR2 ECD protein (Homo sapiens, UniProt P20333).
T3 construct: HRV 3C protease cleavage site (C); 6His (C, cleaved yes); made in house; host or cells: Sf21 insect cells (baculovirus), secreted
T3 sequence (P20333 23-257): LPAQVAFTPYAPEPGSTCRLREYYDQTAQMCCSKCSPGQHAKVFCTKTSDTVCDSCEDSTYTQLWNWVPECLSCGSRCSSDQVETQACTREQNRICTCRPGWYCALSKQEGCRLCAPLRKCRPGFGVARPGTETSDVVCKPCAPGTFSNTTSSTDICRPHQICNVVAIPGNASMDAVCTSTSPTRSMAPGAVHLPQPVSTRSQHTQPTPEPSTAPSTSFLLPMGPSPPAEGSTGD
As to the kind of experiment: SPR off-target binding (selectivity) to human TNFR2 ECD. A digest of the protocol: as §1

Where [4] appears, read: displacement of biotinylated peptide SEQ ID NO. 1 from sTNFR1, 20 point titration, 5-parameter fit based on Morrison equation (tight binding), read-out: TR-FRET Kd^app.
[5] abbreviates: biotinylated human TNFR1 ECD on streptavidin chip, from kon and koff, read-out: SPR hTNFR1 KD.
Setting [6] is: biotinylated human TNFR2 ECD on streptavidin chip, read-out: SPR hTNFR2 KD.
Where [7] appears, read: displacement of biotinylated peptide SEQ ID NO. 1 from sTNFR1.

Regarding `CCCCC[C@@H]1NC(=O)[C@@H]2CC[C@@H](C2)NC(=O)[C@H]([C@@H](C)c2c[nH]c3c(OC)cccc23)NC(=O)CN(C)C(=O)[C@H](Cc2cccc(C(N)=O)c2)NC(=O)[C@H](Cc2ccc(C(N)=O)cc2)NC(=O)[C@](C)(CO)NC(=O)[C@H](Cc2c[nH]c3c(C#N)cccc23)NC(=O)[C@H](Cc2ccc(C(=O)O)cc2)NC(=O)[C@H](CC(N)=O)NC(=O)[C@H]2C[C@@H](N(C)C)CN2C(=O)[C@H](Cc2c[nH]c3ccccc23)NC(=O)[C@@H]2CC[C@@H](O)CN2C(=O)[C@H](Cc2ccncc2)NC1=O` [SEQ ID NO. 84] (cyclo([4Pal][Pip(5R-OH)]W[X9]N[Phe(4-COOH)][Trp(7-CN)][αMeS][Phe(4-CONH2)][Phe(3-CONH2)][Sar][Trp(βS-Me,7-OMe)][X1][Ahp(2)])), the Kd in assay [1] is 0.06 nM; in assay [2], 0.02 nM; in assay [3], greater than 1000 nM.
`CCCC[C@@H]1NC(=O)[C@@H]2CC[C@@H](C2)NC(=O)[C@H]([C@@H](C)c2c[nH]c3c(OC)cccc23)NC(=O)CN(C)C(=O)[C@H](Cc2ccc(C(=O)O)cc2)NC(=O)[C@H](Cc2ccc(C(N)=O)cc2)NC(=O)[C@](C)(CO)NC(=O)[C@H](Cc2c[nH]c3c(C#N)cccc23)NC(=O)[C@H](Cc2ccc(C(=O)O)cc2)NC(=O)[C@H](CC(N)=O)NC(=O)[C@H]2C[C@H](N)CN2C(=O)[C@H](Cc2cn(CC(=O)O)c3ccccc23)NC(=O)[C@@H]2CC[C@@H](O)CN2C(=O)[C@H](Cc2ccncc2)NC1=O` [SEQ ID NO. 104] (cyclo([4Pal][Pip(5R-OH)][Trp(1-CH2COOH)][dPro(4S-NH2)]N[Phe(4-COOH)][Trp(7-CN)][αMeS][Phe(4-CONH2)][Phe(4-COOH)][Sar][Trp(βS-Me,7-OMe)][X1][Nle])): the Kd in assay [1] (setting [4]) was 0.09 nM; in assay [2] (setting [5]) it was 0.02 nM; in assay [3] (setting [6]) it was greater than 1000 nM.
With `CCCC[C@@H]1NC(=O)CSC[C@@H](C(N)=O)NC(=O)[C@H]([C@@H](C)c2c[nH]c3c(OC)cccc23)NC(=O)CN(C)C(=O)[C@H](Cc2ccc(O)cc2)NC(=O)[C@H](Cc2ccc(C(=O)O)cc2)NC(=O)[C@](C)(CO)NC(=O)[C@H](Cc2c[nH]c3c(Cl)cccc23)NC(=O)[C@H](Cc2ccncc2)NC(=O)[C@H](CC(N)=O)NC(=O)[C@H](C)N(CC)C(=O)[C@H](Cc2c[nH]c3ccccc23)NC(=O)[C@@H]2COC(C)(C)CN2C(=O)[C@H](Cc2ccncc2)NC1=O` [SEQ ID NO. 183] ({CH2CO}-[Nle][4Pal][Morpholine(3S-CO,6,6-Me2)]W[NEtAla]N[4Pal][Trp(7-Cl)][αMeS][Phe(4-COOH)]Y[Sar][Trp(βS-Me,7-OMe)]C-NH2; thioether N-14), the Kd is 0.17 nM in assay [1] (setting [4]), 0.1 nM in assay [2] (setting [5]) and greater than 1000 nM in assay [3] (setting [6]). The IC50 (as a rule, the concentration at which inhibition is half-maximal) in assay [1] (setting [7]) came out at 0.5 nM.
As for `CCCC[C@@H]1NC(=O)[C@@H]2CC[C@@H](C2)NC(=O)[C@H]([C@@H](C)c2c[nH]c3c(OC)cccc23)NC(=O)CN(C)C(=O)[C@H](Cc2ccc(C(N)=O)cc2)NC(=O)[C@H](Cc2ccc(C(N)=O)cc2)NC(=O)[C@](C)(CO)NC(=O)[C@H](Cc2c[nH]c3c(Cl)cccc23)NC(=O)[C@H](Cc2ccc(C(=O)O)cc2)NC(=O)[C@H](CC(N)=O)NC(=O)[C@H]2C[C@H](O)CN2C(=O)[C@H](Cc2c[nH]c3ccccc23)NC(=O)[C@@H]2CC[C@@H](O)CN2C(=O)[C@H](Cc2ccncc2)NC1=O` [SEQ ID NO. 196] (cyclo([4Pal][Pip(5R-OH)]W[dHyp]N[Phe(4-COOH)][Trp(7-Cl)][αMeS][Phe(4-CONH2)][Phe(4-CONH2)][Sar][Trp(βS-Me,7-OMe)][X1][Nle])), the Kd in assay [1] (setting [4]) is 0.09 nM; in assay [2] (setting [5]) it was 0.05 nM; in assay [3] (setting [6]) it was greater than 1000 nM.
On to `C[C@@H](c1c[nH]c2ccccc12)[C@@H]1NC(=O)CN(C)C(=O)[C@H](Cc2ccc(CN)cc2)NC(=O)[C@H](Cc2ccc(C(=O)O)cc2)NC(=O)[C@](C)(CO)NC(=O)[C@H](Cc2ccc3ccccc3c2)NC(=O)[C@H](Cc2ccc(CN)cc2)NC(=O)[C@H](CC(N)=O)NC(=O)[C@H]2CCCN2C(=O)[C@H]([C@@H](C)c2c[nH]c3ccccc23)NC(=O)[C@H](CO)NC(=O)[C@H](Cc2ccc(CN)cc2)NC(=O)[C@H](CCCNC(N)=O)NC(=O)CSC[C@@H](C(N)=O)NC1=O` [SEQ ID NO. 206] ({CH2CO}-[Cit][Phe(4-CH2NH2)]S[Trp(βS-Me)][dP]N[Phe(4-CH2NH2)][2Nal][αMeS][Phe(4-COOH)][Phe(4-CH2NH2)][Sar][Trp(βS-Me)]C-NH2; thioether N-14), for which the half-inhibitory concentration (IC50) in assay [1] (setting [7]) worked out at 26 nM. Further, the Kd in assay [2] (setting [5]) is 3 nM; in assay [3] (setting [6]) it was greater than 1000 nM.
